Literature values, collected in patent US20140080712A1, “COMPOSITIONS AND METHODS FOR DOUBLE ENCAPSULATION OF A VOLATILE COMPOUND” (AgroFresh Inc., priority 2012, published 2014).

System: ethylene
Conditions: freshness management

## CC1=CC1 [Sample 1-MCP, 1-methylcyclopropene]
  concentration effective in blocking ethylene: ~100 ppb
